This passage reports cytotoxicity results from ChEMBL document CHEMBL3507680, “University of Dundee, Gates Library screen for HepG2 cell viability”.

This data set can be described thus: Human HepG2 cell viability assay in 384 well format. It is filed as toxicity, cell-based. On the set-up: dose 125 nL, time 70.5 hour; concentration not given beside the values. The settings on record: HepG2 cells, read-out: Inhibition.
In the case of `CNCc1cn(C[C@H]2CC3CCN2C[C@@H]3C(=O)Nc2ccccc2)nn1` (stereo partly specified), the cytotoxicity at 70.5 h is -9.94%.
With `CC[C@H]1CN2CC[C@H]1C[C@@H]2CNC(=O)Nc1ccc(Br)cc1`, the cytotoxicity at 70.5 h was -0.477%.
On to `CC[C@H]1CN2CC[C@H]1C[C@@H]2CNC(=O)Nc1cc(OC)cc(OC)c1`, for which the cytotoxicity at 70.5 h is 0.42%.
Consider `CC[C@H]1CN2CC[C@H]1C[C@@H]2CNC(=O)Nc1ccccc1`, for which the cytotoxicity at 70.5 h is -2.2%.
With `CC(C)(C)CC(=O)N1CC[C@H]2NC(=O)N(Cc3ccccc3)C(=O)[C@H]21`, the cytotoxicity at 70.5 h is -4.69%.
Consider `O=C(NC[C@H]1C[C@@H]2CCN1C[C@@H]2CN1CCOCC1)Nc1ccsc1`, for which the cytotoxicity at 70.5 h was -12.4%.
Regarding `CC(=O)NC[C@H]1C[C@@H]2CCN1C[C@@H]2c1cc(-c2cccs2)nn1C`, the cytotoxicity at 70.5 h was -10.2%.
Under `CCNC(=O)NC[C@H]1C[C@@H]2CCN1C[C@@H]2c1cc(-c2cccs2)nn1C` stands -3.63%; under `Cn1nc(-c2ccccc2)cc1[C@H]1CN2CC[C@H]1C[C@@H]2CNS(C)(=O)=O`, -6.73%; under `CC1CCN(C[C@H]2CN3CC[C@H]2C[C@@H]3CNC(=O)Nc2ccsc2)CC1`, 10.5%.
In the case of `CC1CCN(C[C@H]2CN3CC[C@H]2C[C@@H]3CNC(=O)c2ccco2)CC1`, the cytotoxicity at 70.5 h turned out to be 19.1%.
`O=S(=O)(NC[C@H]1C[C@@H]2CCN1C[C@@H]2CN1CCOCC1)c1ccccc1`: the cytotoxicity at 70.5 h is -0.151%.
For the compound `COc1ccccc1CN1CCC2(CCC(C(=O)N(C)C)O2)CC1` (stereo unspecified), the cytotoxicity at 70.5 h is -8.03%.
As for `CN(C)C(=O)CN1CCC2(CCN(S(=O)(=O)C3CC3)CC2)C1=O`, the cytotoxicity at 70.5 h was -11.2%.
For `c1cc(CN2CCC3(CC2)COC(COCC2CC2)C3)cs1` (stereo unspecified), the cytotoxicity at 70.5 h was -6.27%.
With `Cc1cccc(CN2CCC3(CCC(C(=O)N(C)C)O3)CC2)n1` (stereo unspecified), the cytotoxicity at 70.5 h is -9.32%.
Under `O=C1CC[C@]2(CC[C@@H](NC(=O)NCc3ccccc3)CC2)N1` stands 15.6%; under `CC(=O)N1CCC2(CCCN(S(=O)(=O)c3ccccc3)C2)C1` (stereo unspecified), 20%; under `Cc1cc(C(=O)N2CC[C@@H]3CN(CCC(C)C)S(=O)(=O)[C@@H]3CC2)no1`, -2.89%.
Under `C[C@H]1C[C@H]2CN(S(=O)(=O)c3ccc(F)cc3)CC[C@@H]2O1` stands -3.04%; under `CCCS(=O)(=O)N1C[C@H]2C[C@H](C(=O)N3CCCC3)[C@@H](C1)O2`, -3.05%.
Take `CC(=O)N1CCC2(C1)CN(S(=O)(=O)c1ccccc1)C2`: the cytotoxicity at 70.5 h was -7.01%.
Consider `O=C(Cc1ccc(F)cc1)N1C[C@H]2CCN[C@H]2C1`, for which the cytotoxicity at 70.5 h was -5%.
With `C[C@H]1C[C@H]2CN(S(=O)(=O)c3ccc(F)cc3)CC[C@H]2O1`, the cytotoxicity at 70.5 h is 13.7%.
As to `N#Cc1ccc(C(=O)N2CCC3(CC2)CC3)cc1`, the cytotoxicity at 70.5 h worked out at 4.59%.
Turning to `COCCN1C(=O)CCC12CCCN(C(=O)NC(C)C)CC2` (stereo unspecified), the cytotoxicity at 70.5 h was found to be 7.1%.
Take `Cn1cccc1C(=O)N1CCC2(CC1)CN(S(C)(=O)=O)c1ccccc12`: the cytotoxicity at 70.5 h stood at 3.63%.
With `Cc1cc(C(=O)N2CC[C@@H](O)[C@@H]2Cc2ccccc2)no1` the figure was -11.3%; with `CN1CCN(C(=O)c2n[nH]c3c2CN(C2CCOC2)CC3)CC1` (stereo unspecified), -10.2%; with `Cc1cccc(N2CC3(CCN(S(=O)(=O)c4cccs4)C3)CC2=O)c1` (stereo unspecified), -2.22%.
As to `CC[C@@H]1N(CC2CCC2)CCC[C@]12CCC(=O)N2Cc1ccncc1`, the cytotoxicity at 70.5 h is -4.74%.
With `COc1ccc(C[C@H]2CN(C(=O)c3ncccn3)CC[C@@H]2OC)cc1`, the cytotoxicity at 70.5 h was -6.01%.
With `O=C(C1CCOCC1)N1CCC2(CCNCC2)C1` the figure was -11.8%; with `O=C1N(Cc2cccc(F)c2)CCC12CCCNC2` (stereo unspecified), -13.6%; with `O=C(C1CCOC1)N1CCC2(CC1)COC2` (stereo unspecified), -7.79%.
For the compound `CC(C)NC(=O)[C@H]1C[C@@H]2[C@@H](C1)OCCN2Cc1ccncc1`, the cytotoxicity at 70.5 h was -7.54%.
Consider `c1cc(C[C@H]2[C@H](N3CCOCC3)CCN2Cc2ccoc2)ccn1`, for which the cytotoxicity at 70.5 h is -11.4%.
Regarding `c1nc2c(c(C3CCOC3)n1)CCN(Cc1ccoc1)CC2` (stereo unspecified), the cytotoxicity at 70.5 h amounted to 7.95%.
For `Cc1cnc(C(=O)N2CCC3(CC2)CC(c2ccccc2)C(=O)N3)cn1` (stereo unspecified), the cytotoxicity at 70.5 h is 8.04%.
For the compound `CNC(=O)c1nc2c(s1)CCN(C(=O)c1ccccc1)CC2`, the cytotoxicity at 70.5 h is -9.7%.
With `CC(C)CN1CCC2(CCCNC2)C1=O` (stereo unspecified) the figure was -10.9%; with `O=C1CC2(CCNCC2)C(=O)N1c1cccc(F)c1`, -0.489%; with `COc1cccc(N2C(=O)CC3(CCCNC3)C2=O)c1` (stereo unspecified), -5.35%.
On to `COc1cccc(N2C(=O)CC3(CCNCC3)C2=O)c1`, for which the cytotoxicity at 70.5 h was -4.17%.
Under `CC(=O)N1CCCCC12CCCN(Cc1ccco1)C2` (stereo unspecified) stands -14.9%; under `CC(C)C(=O)N1CC[C@H]2N(C)CC[C@@]2(C(=O)N2CCOCC2)CC1`, 2.86%.
Take `O=C(N1CCCC1)N1CC[C@H]2[C@H]1CCN2c1ncccn1`: the cytotoxicity at 70.5 h is -3.91%.
For `CN1C(=O)CC(c2ccccc2)C12CCN(CC1CC1)CC2` (stereo unspecified), the cytotoxicity at 70.5 h is -11.2%.
With `CCCS(=O)(=O)N1C[C@H]2C[C@H](C(=O)N3CCN(C)CC3)[C@@H](C1)O2` the figure was 4.46%.
With `O=C1CC2(CCN(CC3CCOC3)CC2)c2ccccc2N1CC1CC1` (stereo unspecified) the figure was -1.14%; with `O=C1Nc2ccccc2C12CCN(Cc1cccs1)CC2`, -2.74%; with `Cc1ccc(CN2CCC3(CC2)CCN(C(=O)c2cccn2C)C3)cc1`, -3.29%.
With `CCN1C(=O)CC[C@]12CC[C@@H](NC(=O)c1ccncc1F)CC2`, the cytotoxicity at 70.5 h is -6.51%.
As for `O=C1CC[C@H]2[C@@H](CCN2Cc2ccco2)N1`, the cytotoxicity at 70.5 h is -8.59%.
As for `CO[C@H]1CCN(C(=O)Cc2ccsc2)[C@@H]2CN(CC3CC3)C[C@H]12`, the cytotoxicity at 70.5 h was -4.21%.
`CN1C(=O)CC(c2ccccc2)C12CCN(CCO)CC2` (stereo unspecified): the cytotoxicity at 70.5 h was determined as 2.6%.
On to `O=C(C1CC1)N1CCC2(CCCN2Cc2ccc(F)cc2)CC1`, for which the cytotoxicity at 70.5 h turned out to be 5.51%.
Regarding `CC(C)NC(=O)N1CCC2(CCC(=O)N2CCN(C)C)CC1`, the cytotoxicity at 70.5 h was -8.1%.
`O=C1[C@H]2CN(C(=O)[C@H]3CCCO3)C[C@H]2CN1CCN1CCCC1`: the cytotoxicity at 70.5 h was -9.56%.
As for `O=C1CC[C@]2(CC[C@@H](NCc3ccsc3)CC2)N1Cc1ccccc1`, the cytotoxicity at 70.5 h is -3.82%.
With `CCN1CCC2(CCN(Cc3ccc(OC)cc3)CC2)C1=O` the figure was -3.84%; with `CNC(=O)CN1CCCC12CCN(C(=O)c1ccccc1F)CC2`, -10.4%.
Take `O=C1C[C@H]2[C@@H](CCN2C(=O)Cc2ccccc2)N1Cc1cccnc1`: the cytotoxicity at 70.5 h was -8.76%.
For the compound `CCOC1COC2(CCN(Cc3ccc(F)cc3)CC2)C1` (stereo unspecified), the cytotoxicity at 70.5 h is -20.1%.
Regarding `CC(=O)N1C(CN2CCCC2)C[C@@H]2CN(C(=O)c3ccoc3)CC[C@@H]21` (stereo partly specified), the cytotoxicity at 70.5 h was -15.6%.
Turning to `CCOC1COC2(CCN(Cc3ccc(C)c(C)c3)CC2)C1` (stereo unspecified), the cytotoxicity at 70.5 h was -11%.
On to `CCOC1COC2(CCN(Cc3ccc(C)cc3)CC2)C1` (stereo unspecified), for which the cytotoxicity at 70.5 h is -11.9%.
On to `COCCC(=O)N1C[C@H]2CN(Cc3cccnc3)C(=O)[C@H]2C1`, for which the cytotoxicity at 70.5 h was determined as 4.13%.
For the compound `Cn1cc(CN2CCC[C@]3(C(=O)O)CN(c4ncccn4)C[C@@H]3C2)cn1`, the cytotoxicity at 70.5 h is -12%.
With `CCc1ncnc2c1CCN(Cc1cccs1)CC2` the figure was -7.19%; with `c1csc(CN2CCc3ncnc(C4CCOC4)c3CC2)n1` (stereo unspecified), -4.88%; with `CO[C@H]1CCN(c2nnc(C)s2)C[C@@H]1Cc1ccccc1`, -4.37%.
With `O=C(N1CCCC1)N1CCC[C@]2(C[C@@H](OCc3ccncc3)CO2)C1`, the cytotoxicity at 70.5 h was -10.6%.
Turning to `COc1ccc(C[C@H]2CN(c3nnc(C)s3)CC[C@H]2OC)cc1`, the cytotoxicity at 70.5 h was -10.2%.
As to `O=C([C@H]1CN(Cc2ccc(F)cc2)C[C@H]2OCC[C@@H]12)N1CCCO1`, the cytotoxicity at 70.5 h was -7.77%.
In the case of `CNC(=O)[C@H]1C[C@H]2OCC[C@H]2N(CC2CCOCC2)C1`, the cytotoxicity at 70.5 h is -8.61%.
Under `CO[C@H]1CCN(c2nnc(C)s2)C[C@@H]1Cc1cccc(C)c1` stands 7.81%; under `O=C(N[C@@H]1CN(c2ncccn2)C[C@@H]2CCCO[C@@H]21)c1ccnnc1`, -6.03%.
Take `O=C(NCc1cn2c(n1)CN(Cc1nccs1)CC2)C1CCC1`: the cytotoxicity at 70.5 h is -6.31%.
With `Cc1cccnc1N1CC2(CCN(Cc3cnn(C)c3)C2)C1` the figure was -10.7%.
With `CN(C)C[C@H]1C[C@@H]2CN(Cc3ccoc3)C[C@@H]2O1` the figure was -12.5%.
With `COCCN1CCC2(CC1)CC(NC(=O)CN(C)C)c1ccccc1O2` (stereo unspecified) the figure was -6.88%; with `O=C(c1n[nH]c2c1CN(C1CCOC1)CC2)N1CCCC1` (stereo unspecified), -1.72%; with `CC[C@@H]1N(C)CCC[C@]12CCC(=O)N2Cc1ccncc1`, 0.423%.
As to `COCC1CN(Cc2cc(C)on2)Cc2cn(CC3CCCC3)nc21` (stereo unspecified), the cytotoxicity at 70.5 h is -8.99%.
`c1cc(CN2CCc3ncnc(C4CCOC4)c3CC2)ccn1` (stereo unspecified): the cytotoxicity at 70.5 h was -6.5%.
Under `O=C(NCc1cn2c(n1)CN(Cc1ccncc1)CC2)C1CCC1` stands 8.23%.
Regarding `O=C(NCc1cn2c(n1)CN(Cc1cccnc1)CC2)C1CCC1`, the cytotoxicity at 70.5 h is 7.24%.
Take `c1cc(CN2CCCC3(COCCN(Cc4c[nH]nn4)C3)C2)cs1` (stereo unspecified): the cytotoxicity at 70.5 h is -2.64%.
In the case of `O=C(NCc1cn2c(n1)CN(Cc1ccccn1)CC2)C1CCC1`, the cytotoxicity at 70.5 h was -10%.
For the compound `CN1CCN(C(=O)c2n[nH]c3c2CN(C2CCOCC2)CC3)CC1`, the cytotoxicity at 70.5 h is -10.2%.
